# In paper PMC3674352 (Cell Death & Disease, 2013):
# Assays:
# Format in all cases: cell-based
# [1] = target: T1, Bcl-xL (Homo sapiens, UniProt Q07817); test: growth and ATP content of yeast co-expressing Bax and Bcl-xL
# [2] = target: T1, Bcl-xL; test: growth of yeast co-expressing Bax and Bcl-xL
# [3] = target: Bcl-2 (Homo sapiens, UniProt P10415); test: growth of yeast co-expressing Bax and Bcl-2
# Bcl-2, sequence (Q07812 whole entry): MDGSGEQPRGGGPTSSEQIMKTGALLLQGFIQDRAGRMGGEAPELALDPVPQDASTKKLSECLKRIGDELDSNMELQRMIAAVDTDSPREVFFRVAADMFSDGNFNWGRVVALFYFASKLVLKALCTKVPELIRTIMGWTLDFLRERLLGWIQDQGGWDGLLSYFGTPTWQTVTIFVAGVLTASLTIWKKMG
# Bcl-2, sequence (P10415 whole entry): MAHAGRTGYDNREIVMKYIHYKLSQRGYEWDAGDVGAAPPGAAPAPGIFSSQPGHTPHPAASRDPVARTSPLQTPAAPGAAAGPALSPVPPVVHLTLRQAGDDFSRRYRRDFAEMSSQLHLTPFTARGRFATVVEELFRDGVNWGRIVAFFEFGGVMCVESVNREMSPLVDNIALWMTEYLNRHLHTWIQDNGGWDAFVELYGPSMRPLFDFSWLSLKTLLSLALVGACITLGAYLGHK
# T1 sequence (Q07812 whole entry): as the sequence (Q07812 whole entry) above
# T1 sequence (Q07817 whole entry): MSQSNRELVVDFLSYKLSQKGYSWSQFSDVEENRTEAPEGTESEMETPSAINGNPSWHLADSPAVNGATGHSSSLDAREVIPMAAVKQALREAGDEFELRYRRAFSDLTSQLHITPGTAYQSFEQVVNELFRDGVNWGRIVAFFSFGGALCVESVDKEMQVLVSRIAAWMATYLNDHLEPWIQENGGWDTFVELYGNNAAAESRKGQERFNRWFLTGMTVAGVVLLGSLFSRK
IC50 [1],IC50 [2],IC50 [3],Structure (SMILES)
~ just under 1 μM,,,CN(C)CC[C@H](CSc1ccccc1)Nc1ccc(S(=O)(=O)NC(=O)c2ccc(N3CCN(Cc4ccccc4-c4ccc(Cl)cc4)CC3)cc2)cc1[N+](=O)[O-] [ABT-737]
,~ just under 1 μM,~ just over 1 μM,CC1(C)CCC(c2ccc(Cl)cc2)=C(CN2CCN(c3ccc(C(=O)NS(=O)(=O)c4ccc(N[C@H](CCN5CCOCC5)CSc5ccccc5)c(S(=O)(=O)C(F)(F)F)c4)cc3)CC2)C1 [ABT-263]
